# Results from patent publication EP2970215B1, “PYRROLIDINE DERIVATIVES, PHARMACEUTICAL COMPOSITIONS CONTAINING THEM, AND THEIR USE IN THERAPY” (AbbVie Deutschland GmbH & Co. KG, priority 2013, dated 2014).
# Target: T1, human GlyT1c transporter (Homo sapiens, UniProt P48067)
# T1 construct: expressed in transfected cells; host or cells: CHO cells (recombinant; line hGlyT1c_5_CHO is named for the uptake assay)
# T1 sequence (P48067 1-706): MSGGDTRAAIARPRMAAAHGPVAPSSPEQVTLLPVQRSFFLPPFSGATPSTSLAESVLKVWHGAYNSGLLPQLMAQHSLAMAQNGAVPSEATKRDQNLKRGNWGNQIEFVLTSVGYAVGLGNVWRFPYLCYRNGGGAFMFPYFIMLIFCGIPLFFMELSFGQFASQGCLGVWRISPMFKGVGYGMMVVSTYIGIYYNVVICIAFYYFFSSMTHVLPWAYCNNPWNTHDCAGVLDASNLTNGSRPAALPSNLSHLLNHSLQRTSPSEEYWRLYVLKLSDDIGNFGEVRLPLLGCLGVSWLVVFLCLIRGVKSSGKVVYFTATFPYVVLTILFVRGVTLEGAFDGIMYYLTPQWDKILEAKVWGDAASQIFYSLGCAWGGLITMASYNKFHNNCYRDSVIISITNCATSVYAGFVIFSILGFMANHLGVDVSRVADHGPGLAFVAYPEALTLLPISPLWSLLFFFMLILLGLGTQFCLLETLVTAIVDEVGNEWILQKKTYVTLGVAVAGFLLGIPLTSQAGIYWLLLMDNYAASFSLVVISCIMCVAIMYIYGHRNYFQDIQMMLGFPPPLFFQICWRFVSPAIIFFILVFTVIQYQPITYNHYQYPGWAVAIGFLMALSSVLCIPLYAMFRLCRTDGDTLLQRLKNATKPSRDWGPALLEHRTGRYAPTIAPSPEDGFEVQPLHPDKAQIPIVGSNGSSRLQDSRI
# Assay: Radioligand binding assay using recombinant CHO cell membranes expressing human GlyT1
# Conditions: radioligand binding to human GlyT1c transporter-expressing membranes
# Text: 2. Radioligand binding assays using recombinant CHO cell membranes expressing human GlyT1: […]
row,Structure (SMILES),Ki [µM]
1,"Cn1cnc(S(=O)(=O)N2C[C@@H](NCc3cccc(Cl)c3)[C@H](c3ccc(F)cc3)C2)c1 (relative stereo) [Example 261, trans-N-(3-chlorobenzyl)-4-(4-fluorophenyl)-1-[(1-methyl-1H-imidazol-4-yl)sulfonyl]pyrrolidin-3-amine]",≤ 1
2,"Cn1cnc(S(=O)(=O)N2C[C@@H](NCc3ccc(C(F)(F)F)cc3Cl)[C@H](c3ccccc3Cl)C2)c1 (relative stereo) [Example 285, trans-4-(2-chlorophenyl)-N-[2-chloro-4-(trifluoromethyl)benzyl]-1-[(1-methyl-1H-imidazol-4-yl)sulfonyl]pyrrolidin-3-amine]",≤ 0.1
3,"O=S(=O)(c1ccc2c(c1)OCCO2)N1CC(Nc2ccc(F)c(F)c2)C(c2ccccc2)C1 (centres unmarked) [Example 496, N-(3,4-difluorophenyl)-1-(2,3-dihydro-1,4-benzodioxin-6-ylsulfonyl)-4-phenylpyrrolidin-3-amine]",≥ 10
4,"Cn1cnc(S(=O)(=O)N2C[C@@H](Nc3cccc(Cl)c3)[C@H](C3CC3)C2)c1 (relative stereo) [Example 338, Trans-N-(3-chlorophenyl)-4-cyclopropyl-1-[(1-methyl-1H-imidazol-4-yl)sulfonyl]pyrrolidin-3-amine]",≤ 1
5,"COc1ccc([C@@H]2CN(S(=O)(=O)c3cn(C)cn3)C[C@H]2NC(=O)c2cccc(C(F)(F)F)c2Cl)cc1 (relative stereo) [Example 2, 2-chloro-N-{trans-4-(4-methoxyphenyl)-1-[(1-methyl-1H-imidazol-4-yl)sulfonyl]pyrrolidin-3-yl}-3-(trifluoromethyl)benzamide]",≤ 1
6,"Cn1cnc(S(=O)(=O)N2C[C@@H](N3Cc4ccc(Cl)cc4C3=O)[C@H](c3ccccn3)C2)c1 (relative stereo) [Example 381, 6-chloro-2-[Trans-1-[(1-methyl-1H-imidazol-4-yl)sulfonyl]-4-(pyridin-2-yl)pyrrolidin-3-yl]-2,3-dihydro-1H-isoindol-1-one]",≤ 10
7,"Cn1cnc(S(=O)(=O)N2C[C@@H](Nc3ccc4cccnc4c3)[C@H](c3ccccc3)C2)c1 (relative stereo) [Example 228, N-{trans-1-[(1-methyl-1H-imidazol-4-yl)sulfonyl]-4-phenylpyrrolidin-3-yl}quinolin-7-amine]",≤ 10
8,"Cn1cnc(S(=O)(=O)N2C[C@@H](Nc3ccccc3Cl)[C@H](c3ccc(F)cc3)C2)c1 (relative stereo) [Example 93, trans-N-(2-chlorophenyl)-4-(4-fluorophenyl)-1-[(1-methyl-1H-imidazol-4-yl)sulfonyl]pyrrolidin-3-amine]",≤ 1
9,"Cc1cc(N[C@H]2CN(S(=O)(=O)c3cn(C)cn3)C[C@@H]2c2ccc(F)cc2)ccc1F [Example 747, (3R,4S)-N-(4-fluoro-3-methylphenyl)-4-(4-fluorophenyl)-1-[(1-methyl-1H-imidazol-4-yl)sulfonyl]pyrrolidin-3-amine]",≤ 0.01
10,"Cn1cnc(S(=O)(=O)N2C[C@H](NCc3ccc(C(F)(F)F)cn3)[C@@H](c3ccccc3)C2)c1 [Example 409, (3R,4S)-1-[(1-methyl-1H-imidazol-4-yl)sulfonyl]-4-phenyl-N-{[5-(trifluoromethyl)pyridin-2-yl]methyl}pyrrolidin-3-amine]",≤ 0.1
11,"Cn1cnc(S(=O)(=O)N2C[C@H](Nc3nccc(C(F)(F)F)c3F)[C@@H](c3ccc(F)cc3)C2)c1 [Example 796, 3-fluoro-N-{(3R,4S)-4-(4-fluorophenyl)-1-[(1-methyl-1H-imidazol-4-yl)sulfonyl]pyrrolidin-3-yl}-4-(trifluoromethyl)pyridin-2-amine]",≤ 0.1
12,"Cn1cnc(S(=O)(=O)N2C[C@@H](CNc3cc(Cl)cc(Cl)c3)[C@H](c3ccc(F)cc3)C2)c1 (relative stereo) [Example 292, 3,5-dichloro-N-({trans-4-(4-fluorophenyl)-1-[(1-methyl-1H-imidazol-4-yl)sulfonyl]pyrrolidin-3-yl}methyl)aniline]",≤ 1
13,"CC1CCN(S(=O)(=O)N2CC(Nc3ccc(F)c(F)c3)C(c3ccccc3)C2)CC1 (centres unmarked) [Example 493, N-(3,4-difluorophenyl)-1-[(4-methylpiperidin-1-yl)sulfonyl]-4-phenylpyrrolidin-3-amine]",≤ 10
14,"Cn1cnc(S(=O)(=O)N2C[C@@H](Nc3ccc(F)cc3)[C@H](c3cccc(F)c3)C2)c1 (relative stereo) [Example 187, trans-4-(3-fluorophenyl)-N-(4-fluorophenyl)-1-[(1-methyl-1H-imidazol-4-yl)sulfonyl]pyrrolidin-3-amine]",≤ 10
15,"Cn1cnc(S(=O)(=O)N2C[C@@H](Nc3ccc(Cl)c(OC(F)(F)F)c3)[C@H](c3ccc(F)cc3)C2)c1 (relative stereo) [Example 306, trans-N-[4-chloro-3-(trifluoromethoxy)phenyl]-4-(4-fluorophenyl)-1-[(1-methyl-1H-imidazol-4-yl)sulfonyl]pyrrolidin-3-amine]",≤ 0.1
16,"Cn1cnc(S(=O)(=O)N2C[C@H](c3ccccc3)[C@H](NCc3ccccc3)C2)c1 (relative stereo) [Example 157, (cis)-N-benzyl-1-[(1-methyl-1H-imidazol-4-yl)sulfonyl]-4-phenylpyrrolidin-3-amine]",≤ 10
17,"Cn1cnc(S(=O)(=O)N2CC(Oc3ccccc3)C(c3ccccc3)C2)c1 (centres unmarked) [Example 277, 1-methyl-4-[(3-phenoxy-4-phenylpyrrolidin-1-yl)sulfonyl]-1H-imidazole]",≤ 10
18,"Cn1cnc(S(=O)(=O)N2C[C@@H](Nc3cccc(C(F)(F)F)c3F)[C@H](c3ccc(F)cc3)C2)c1 (relative stereo) [Example 167, trans-4-(4-fluorophenyl)-N-[2-fluoro-3-(trifluoromethyl)phenyl]-1-[(1-methyl-1H-imidazol-4-yl)sulfonyl]pyrrolidin-3-amine]",≤ 0.1
19,"Cn1cnc(S(=O)(=O)N2C[C@@H](Nc3cccc(C(F)(F)F)c3)[C@H](c3ccccc3Cl)C2)c1 (relative stereo) [Example 255, trans-4-(2-chlorophenyl)-1-[(1-methyl-1H-imidazol-4-yl)sulfonyl]-N-[3-(trifluoromethyl)phenyl]pyrrolidin-3-amine]",≤ 0.1
20,"Cn1cnc(S(=O)(=O)N2C[C@@H](Nc3cccnc3)[C@H](c3ccccc3)C2)c1 (relative stereo) [Example 208, N-{trans-1-[(1-methyl-1H-imidazol-4-yl)sulfonyl]-4-phenylpyrrolidin-3-yl}pyridin-3-amine]",≤ 10
21,"Cn1cnc(S(=O)(=O)N2C[C@@H](Nc3cc(F)cc(Cl)c3)[C@H](c3ccccc3)C2)c1 (relative stereo) [Example 225, trans-N-(3-chloro-5-fluorophenyl)-1-[(1-methyl-1H-imidazol-4-yl)sulfonyl]-4-phenylpyrrolidin-3-amine]",≤ 10
22,"COCCOCCN[C@H]1CN(S(=O)(=O)c2cn(C)cn2)C[C@@H]1c1ccccc1 [Example 666, (3R,4S)-N-[2-(2-methoxyethoxy)ethyl]-1-[(1-methyl-1H-imidazol-4-yl)sulfonyl]-4-phenylpyrrolidin-3-amine]",≤ 10

# Same assay, conditions: radioligand binding, recombinant CHO cell membranes expressing human GlyT1c
row,Structure (SMILES),Ki [µM]
1,"Cn1cc(S(=O)(=O)N2C[C@H](Nc3cccc(C(F)(F)F)c3)[C@@H](c3ccc(F)cc3)C2)nn1 [Example 839, (3R,4S)-4-(4-fluorophenyl)-1-[(1-methyl-1H-1,2,3-triazol-4-yl)sulfonyl]-N-[3-(trifluoromethyl)phenyl]pyrrolidin-3-amine]",≤ 0.01
